Data as given in PubChem BioAssay (NCI).
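Briefly, cells in 96-well plates were exposed to five compound concentrations for 48 h, and endpoints were estimated by linear interpolation. TGI is the concentration that stops growth completely.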

Tests used:
Assay in all cases: growth of human tumour cells (NCI), 48 h
HOP-62 NSCLC = system: HOP-62 NSCLC
OVCAR-4 ovarian = system: OVCAR-4 ovarian
KM12 colon = system: KM12 colon
M14 melanoma = system: M14 melanoma
SF-295 CNS = system: SF-295 CNS
LOX IMVI melanoma = system: LOX IMVI melanoma
COLO 205 colon = system: COLO 205 colon
SK-MEL-2 melanoma = system: SK-MEL-2 melanoma
MDA-MB-231 breast = system: MDA-MB-231 breast
NCI/ADR-RES ovarian = system: NCI/ADR-RES ovarian

## Cn1c(O)c(C(=O)NC2CCCCC2)c(=O)n(C)c1=S
HOP-62 NSCLC
  TGI: 16.8 µM
OVCAR-4 ovarian
  TGI: 42.7 µM
KM12 colon
  TGI: 27.7 µM
M14 melanoma
  TGI: 21.4 µM
SF-295 CNS
  TGI: 17.8 µM
LOX IMVI melanoma
  TGI: 28.5 µM
COLO 205 colon
  TGI: 4.42 µM
SK-MEL-2 melanoma
  TGI: 15 µM

## N#CCCC(CCC#N)(CCC#N)NO
MDA-MB-231 breast
  TGI: > 100 µM
NCI/ADR-RES ovarian
  TGI: > 100 µM
KM12 colon
  TGI: > 100 µM
M14 melanoma
  TGI: > 100 µM
SF-295 CNS
  TGI: > 100 µM
COLO 205 colon
  TGI: > 100 µM
SK-MEL-2 melanoma
  TGI: > 100 µM

## O=C(Nc1cc(Cl)c(Cl)cc1Cl)C(=O)C1C(=O)NC(=S)NC1=O
HOP-62 NSCLC
  TGI: > 100 µM
OVCAR-4 ovarian
  TGI: > 100 µM
KM12 colon
  TGI: > 100 µM
M14 melanoma
  TGI: > 100 µM
SF-295 CNS
  TGI: > 100 µM
LOX IMVI melanoma
  TGI: > 100 µM
COLO 205 colon
  TGI: > 100 µM
SK-MEL-2 melanoma
  TGI: > 100 µM

## CCCCC1Cc2ccccc2-c2nc3ccccc3n21 (stereo unspecified)
MDA-MB-231 breast
  TGI: 31.7 µM
NCI/ADR-RES ovarian
  TGI: 33.5 µM
HOP-62 NSCLC
  TGI: 36.5 µM
OVCAR-4 ovarian
  TGI: 29.8 µM
KM12 colon
  TGI: 38.5 µM
M14 melanoma
  TGI: 36.3 µM
SF-295 CNS
  TGI: 30.8 µM
LOX IMVI melanoma
  TGI: 31.6 µM
SK-MEL-2 melanoma
  TGI: 30.7 µM

## CC(C)=CCC(O)[C@](C)(O)[C@H]1[C@H](O)C[C@@]2(C)[C@@H]3CCc4cc(O)c(OC5OC(CO)C(O)C(O)C5O)cc4C3(C)C(=O)C[C@]12C (stereo partly specified)
MDA-MB-231 breast
  TGI: > 100 µM
NCI/ADR-RES ovarian
  TGI: > 100 µM
HOP-62 NSCLC
  TGI: > 100 µM
OVCAR-4 ovarian
  TGI: > 100 µM
KM12 colon
  TGI: > 100 µM
M14 melanoma
  TGI: > 100 µM
SF-295 CNS
  TGI: > 100 µM
COLO 205 colon
  TGI: > 100 µM
SK-MEL-2 melanoma
  TGI: > 100 µM

## CC1=CCC(O)C=CC(C)C(O)C(C)C=C(C)C(=O)c2c(O)c(C)cc3c2C(=O)C(N)=C(NC(=O)/C=C\C=C/C=CC(C)C(O)CC1=O)C3=O (stereo unspecified)
HOP-62 NSCLC
  TGI: > 100 µM
OVCAR-4 ovarian
  TGI: > 100 µM
KM12 colon
  TGI: > 100 µM
M14 melanoma
  TGI: > 100 µM
SF-295 CNS
  TGI: > 100 µM
LOX IMVI melanoma
  TGI: > 100 µM
COLO 205 colon
  TGI: > 100 µM
SK-MEL-2 melanoma
  TGI: > 100 µM

## C[C@@H](c1ccccc1)n1c(N)c(C#N)c2ccc([N+](=O)[O-])cc2c1=O
MDA-MB-231 breast
  TGI: 37 µM
NCI/ADR-RES ovarian
  TGI: 22.5 µM
OVCAR-4 ovarian
  TGI: 35.7 µM
KM12 colon
  TGI: 42.8 µM
LOX IMVI melanoma
  TGI: 34.9 µM
COLO 205 colon
  TGI: 30.8 µM
SK-MEL-2 melanoma
  TGI: > 100 µM

## Cc1ccc2c(c1)CC1(Cc3ccccc3C1=O)C2=O (stereo unspecified)
MDA-MB-231 breast
  TGI: > 100 µM
NCI/ADR-RES ovarian
  TGI: > 100 µM
HOP-62 NSCLC
  TGI: > 100 µM
OVCAR-4 ovarian
  TGI: > 100 µM
KM12 colon
  TGI: > 100 µM
M14 melanoma
  TGI: > 100 µM
SF-295 CNS
  TGI: > 100 µM
LOX IMVI melanoma
  TGI: > 100 µM
COLO 205 colon
  TGI: > 100 µM

## O=Cc1ccccc1COC(=O)c1cc(C(=O)OCc2ccccc2C=O)c(C(=O)OCc2ccccc2C=O)cc1C(=O)OCc1ccccc1C=O
OVCAR-4 ovarian
  TGI: > 100 µM
KM12 colon
  TGI: > 100 µM
M14 melanoma
  TGI: > 100 µM
SF-295 CNS
  TGI: > 100 µM
LOX IMVI melanoma
  TGI: > 100 µM
COLO 205 colon
  TGI: > 100 µM
SK-MEL-2 melanoma
  TGI: > 100 µM

## Cc1cc(N(CCC#N)CCC#N)ccc1/C=C(\NC(=O)/C=C/c1ccccc1)C(N)=O
HOP-62 NSCLC
  TGI: > 100 µM
KM12 colon
  TGI: > 100 µM
M14 melanoma
  TGI: > 100 µM
SF-295 CNS
  TGI: > 100 µM
LOX IMVI melanoma
  TGI: > 100 µM
COLO 205 colon
  TGI: > 100 µM
SK-MEL-2 melanoma
  TGI: > 100 µM

## CCN(CC)C1CC(O[C@H]2C[C@](O)(C(=O)CO)Cc3c(O)c4c(c(O)c32)C(=O)c2c(OC)cccc2C4=O)OC(C)C1O (stereo partly specified)
HOP-62 NSCLC
  TGI: 0.455 µM
OVCAR-4 ovarian
  TGI: 0.255 µM
KM12 colon
  TGI: 0.457 µM
M14 melanoma
  TGI: 0.31 µM
SF-295 CNS
  TGI: 0.468 µM
LOX IMVI melanoma
  TGI: 0.439 µM
COLO 205 colon
  TGI: 0.193 µM
SK-MEL-2 melanoma
  TGI: 0.193 µM

## Nc1nc([O-])c2c(n1)[n+](C1OC(CO)C(O)C1O)cn2CCO (stereo unspecified)
HOP-62 NSCLC
  TGI: > 100 µM
OVCAR-4 ovarian
  TGI: > 100 µM
KM12 colon
  TGI: > 100 µM
M14 melanoma
  TGI: > 100 µM
SF-295 CNS
  TGI: > 100 µM
LOX IMVI melanoma
  TGI: > 100 µM
COLO 205 colon
  TGI: > 100 µM
SK-MEL-2 melanoma
  TGI: > 100 µM

## CCO/C=N\C1=C(C#N)SC2=N/C(=C\c3ccc(OC)cc3)C(=O)N21
MDA-MB-231 breast
  TGI: > 100 µM
NCI/ADR-RES ovarian
  TGI: > 100 µM
OVCAR-4 ovarian
  TGI: 65.6 µM
KM12 colon
  TGI: > 100 µM
M14 melanoma
  TGI: > 100 µM
SF-295 CNS
  TGI: > 100 µM
LOX IMVI melanoma
  TGI: > 100 µM
COLO 205 colon
  TGI: > 100 µM

## C[Si](C)(C)OC1CC(=O)OC1n1cc(F)c(=O)[nH]c1=O (stereo unspecified)
HOP-62 NSCLC
  TGI: > 100 µM
OVCAR-4 ovarian
  TGI: > 100 µM
KM12 colon
  TGI: > 100 µM
M14 melanoma
  TGI: > 100 µM
SF-295 CNS
  TGI: > 100 µM
LOX IMVI melanoma
  TGI: 32.5 µM
COLO 205 colon
  TGI: > 100 µM
SK-MEL-2 melanoma
  TGI: > 100 µM

## CC(=O)OC1C(Oc2c(C)cc3c(c2O)[C@@H](C)CC[C@@H]3[C@@H](C)CCC=C(C)C)OCC(O)C1O (stereo partly specified)
MDA-MB-231 breast
  TGI: 38.7 µM
NCI/ADR-RES ovarian
  TGI: 40.6 µM
HOP-62 NSCLC
  TGI: 32.2 µM
KM12 colon
  TGI: 31.2 µM
M14 melanoma
  TGI: 30.9 µM
SF-295 CNS
  TGI: 35.3 µM
LOX IMVI melanoma
  TGI: 32.5 µM
COLO 205 colon
  TGI: 30.7 µM
SK-MEL-2 melanoma
  TGI: 45.2 µM

## NNC(=S)N/N=C(/C(=O)Nc1ccc(Cl)c(Cl)c1)C(C1OC(=O)c2ccccc21)[N+](=O)[O-] (stereo unspecified)
MDA-MB-231 breast
  TGI: > 100 µM
NCI/ADR-RES ovarian
  TGI: > 100 µM
HOP-62 NSCLC
  TGI: > 100 µM
OVCAR-4 ovarian
  TGI: > 100 µM
KM12 colon
  TGI: > 100 µM
M14 melanoma
  TGI: > 100 µM
SF-295 CNS
  TGI: > 100 µM
LOX IMVI melanoma
  TGI: > 100 µM
SK-MEL-2 melanoma
  TGI: > 100 µM

## O=c1cc(-c2ccc(Oc3ccccc3)cc2)[nH]c2cc3c(cc12)OCO3
HOP-62 NSCLC
  TGI: > 100 µM
OVCAR-4 ovarian
  TGI: > 100 µM
M14 melanoma
  TGI: > 100 µM
SF-295 CNS
  TGI: > 100 µM
LOX IMVI melanoma
  TGI: > 100 µM
COLO 205 colon
  TGI: > 100 µM
SK-MEL-2 melanoma
  TGI: > 100 µM
